Key:
[1] = target: T1, EGFR L858R (BaF3-L858R cells) (Homo sapiens, UniProt P00533, L858R); assay: EGFR degradation in BaF3-L858R cells (HTRF assay); type: cell-based; settings: 16 h treatment; for DC50: IC50(DC50) of EGFR degradation; for Dmax: maximum percentage of inhibition (degradation)
T1 construct: host or cells: BaF3
Procedure: BaF3-L858R (abbv. L858R) cell were purchased from Kangyuan Bochuang Biotechnology (Beijing) Co., Ltd.
(§1) H1975-#8 and BaF3-L858R cells are treated with compounds diluted in 0.1% DMSO cell culture medium on day 2, incubate for 16 h, 37° C., 5% CO2. the final concentration of compounds in all assay is start with 10 uM, 5-fold dilution, total 8 doses were included.
(§2) After 16 h treatment, for H1975-#8 cells, add 100 ul HTRF 1× lysis buffer to each well; for BaF3-L858R cells, add 20 μl 4× lysis buffer to each well; seal the plate and incubate 1 hour at room temperature on a plate shaker; Once the cells are lysed, 16 μL of cell lysate are transferred to a PE 384-well HTRF detection plate; 4 μL of pre-mixed HTRF antibodies are added to each well; Cover the plate with a plate sealer, spin 1000 rpm for 1 min, Incubate overnight at room temperature; Read on BMG PheraStar with HTRF protocol (337 nm-665 nm-620 nm).
(§3) The inhibition (degradation) percentage of the compound was calculated by the following equation:
(§4) High control=Cell group with added DMSO and without compound, indicating microplate readings without EGFR degradation;
(§5) Dmax is the maximum percentage of inhibition (degradation).
(§6) The IC50(DC50) value of a compound can be obtained by fitting the following equation
(§7) Wherein, X and Y are known values, and IC50, Hillslope, Top and Bottom are the parameters obtained by fitting with software. Y is the inhibition percentage (calculated from the equation), X is the concentration of the compound; IC50 is the concentration of the compound when the 50% inhibition is reached. The smaller the IC50 value is, the stronger the inhibitory ability of the compound is. Vice versa, the higher the IC50 value is, the weaker the ability the inhibitory ability of the compound is; Hillslope represents the slope of the fitted curve, generally around 1*; Bottom represents the minimum value of the curve obtained by data fitting, which is generally 0%±20%; Top represents the maximum value of the curve obtained by data fitting, which is generally 100%±20%. The experimental data were fitted by calculating and analyzing with Dotmatics data analysis software.

[2] = target: T2, EGFR-L858R/C797S (H1975-clone #8 cells) (Homo sapiens, UniProt P00533, C797S/L858R); assay: EGFR degradation in H1975-clone#8 (L858R/C797S) cells (HTRF assay); type: cell-based; settings: 16 h treatment; for DC50: IC50(DC50) of EGFR degradation; for Dmax: maximum percentage of inhibition (degradation)
T2 construct: expressed in transfected cells; host or cells: H1975 (lentiviral transduction, endogenous EGFR knocked out, single clone #8)
T2 sequence (P00533 25-1210 C797S/L858R): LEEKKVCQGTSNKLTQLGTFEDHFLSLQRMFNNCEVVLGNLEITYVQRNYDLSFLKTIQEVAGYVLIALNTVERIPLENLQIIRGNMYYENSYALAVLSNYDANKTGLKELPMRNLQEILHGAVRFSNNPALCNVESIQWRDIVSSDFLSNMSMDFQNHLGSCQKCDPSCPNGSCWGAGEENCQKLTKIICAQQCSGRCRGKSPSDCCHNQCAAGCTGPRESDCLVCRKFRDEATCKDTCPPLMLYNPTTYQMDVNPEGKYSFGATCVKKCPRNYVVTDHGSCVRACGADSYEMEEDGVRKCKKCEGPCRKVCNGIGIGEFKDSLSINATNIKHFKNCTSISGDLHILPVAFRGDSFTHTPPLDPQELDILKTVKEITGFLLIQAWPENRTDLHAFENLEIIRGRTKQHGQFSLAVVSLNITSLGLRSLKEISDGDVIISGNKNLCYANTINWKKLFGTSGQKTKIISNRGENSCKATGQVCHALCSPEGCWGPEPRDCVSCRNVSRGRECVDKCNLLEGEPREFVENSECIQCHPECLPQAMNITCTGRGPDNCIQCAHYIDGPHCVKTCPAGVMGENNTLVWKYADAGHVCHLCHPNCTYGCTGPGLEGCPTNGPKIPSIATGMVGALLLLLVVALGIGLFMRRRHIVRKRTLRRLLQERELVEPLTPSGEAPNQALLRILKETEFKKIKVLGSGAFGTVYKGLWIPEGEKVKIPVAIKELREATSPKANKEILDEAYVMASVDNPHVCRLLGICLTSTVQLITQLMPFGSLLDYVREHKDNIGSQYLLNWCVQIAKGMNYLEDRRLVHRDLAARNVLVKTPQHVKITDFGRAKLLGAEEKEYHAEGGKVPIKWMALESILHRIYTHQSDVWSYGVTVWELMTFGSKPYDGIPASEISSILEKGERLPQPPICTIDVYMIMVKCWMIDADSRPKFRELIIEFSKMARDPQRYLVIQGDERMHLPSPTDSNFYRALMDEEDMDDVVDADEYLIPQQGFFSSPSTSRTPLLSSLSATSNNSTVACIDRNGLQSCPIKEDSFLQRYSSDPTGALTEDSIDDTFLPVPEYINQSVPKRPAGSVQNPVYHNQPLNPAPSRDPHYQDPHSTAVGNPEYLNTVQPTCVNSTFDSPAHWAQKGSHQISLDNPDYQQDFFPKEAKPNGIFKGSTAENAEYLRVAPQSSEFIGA
Procedure: H1975-clone #8 (L858R/C797S): EGFR-L858R/C797S were stably expressed in H1975 cell lines by lentivirus-mediated over-expression, respectively. The EGFR over-expressed cells then underwent knockout, in which the EGFR targeting sgRNA was designed to only target the endogenous EGFR copies and preserve the exogenous EGFR copies. Followed by the knockout, the edited H1975 cells were seeded in 96 well plates at the concentration of […], cultured for about 2 weeks to allow single clones formation. The formed clones were screened by DNA sequencing and whole exon sequencing analysis for the desired edition. H1975-clone #8 were finally confirmed as homozygous L858R/C797S EGFR clones.
as §1, §2, §3, §4, §5, §6, §7

T1 sequence (P00533 25-1210 L858R): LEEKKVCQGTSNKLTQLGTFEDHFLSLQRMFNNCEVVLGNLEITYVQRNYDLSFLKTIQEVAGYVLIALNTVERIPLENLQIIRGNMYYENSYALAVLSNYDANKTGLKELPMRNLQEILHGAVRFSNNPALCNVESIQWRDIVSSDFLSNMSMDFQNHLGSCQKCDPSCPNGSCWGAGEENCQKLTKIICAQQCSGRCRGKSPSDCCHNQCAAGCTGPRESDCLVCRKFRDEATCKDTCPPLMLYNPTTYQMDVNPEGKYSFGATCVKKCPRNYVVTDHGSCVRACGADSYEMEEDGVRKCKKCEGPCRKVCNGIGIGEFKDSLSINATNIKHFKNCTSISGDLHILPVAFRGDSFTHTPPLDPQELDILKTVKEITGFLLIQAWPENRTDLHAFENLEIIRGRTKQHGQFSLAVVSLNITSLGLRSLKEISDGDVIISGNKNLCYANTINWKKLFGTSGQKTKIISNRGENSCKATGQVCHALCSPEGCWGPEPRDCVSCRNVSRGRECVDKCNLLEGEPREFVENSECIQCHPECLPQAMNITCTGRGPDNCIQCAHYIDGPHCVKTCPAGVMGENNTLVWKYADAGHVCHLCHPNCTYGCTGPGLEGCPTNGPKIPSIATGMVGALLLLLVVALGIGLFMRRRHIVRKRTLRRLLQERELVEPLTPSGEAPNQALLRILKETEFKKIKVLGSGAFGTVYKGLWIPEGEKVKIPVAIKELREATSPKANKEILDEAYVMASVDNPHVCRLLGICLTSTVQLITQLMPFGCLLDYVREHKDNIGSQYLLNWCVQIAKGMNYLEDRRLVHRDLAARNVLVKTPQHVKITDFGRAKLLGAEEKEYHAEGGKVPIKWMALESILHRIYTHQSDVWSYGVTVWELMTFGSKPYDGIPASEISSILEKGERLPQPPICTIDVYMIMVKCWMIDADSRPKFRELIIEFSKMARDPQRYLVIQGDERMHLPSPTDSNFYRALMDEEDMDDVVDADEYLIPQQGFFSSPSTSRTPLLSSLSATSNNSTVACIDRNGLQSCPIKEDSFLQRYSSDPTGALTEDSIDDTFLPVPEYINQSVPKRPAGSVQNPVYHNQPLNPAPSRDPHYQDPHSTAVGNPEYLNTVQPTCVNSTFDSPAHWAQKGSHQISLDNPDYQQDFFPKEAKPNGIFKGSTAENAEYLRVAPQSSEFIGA

Row | Structure (SMILES) | DC50 [1] [nM] | Dmax [1] [%] | DC50 [2] [nM] | Dmax [2] [%]
1 | Cc1cc2cc(n1)-c1cnn(C)c1OCC[C@H]1C[C@@H]1CN1/C(=N/C2=O)Nc2ccc(NC3CN(C4CCN(c5cnc(C6CCC(=O)NC6=O)cc5C)CC4)C3)cc21 (stereo partly shown) [Example 1, 3-(5-(4-(3-(((7^1S,7^2R,E)-1^1,2^6-dimethyl-3-oxo-5^2,5^3-dihydro-1^1H,5^1H-10-oxa-4-aza-5 (2,1)-benzo[d]imidazola-2 (2,4)-pyridina-1 (4,5)-pyrazola-7 (1,2)-cyclopropanacyclodecaphane-5^6-yl)amino)azetidin-1-yl)piperidin-1-yl)-4-methylpyridin-2-yl)piperidine-2,6-dione] | 15.7 | 68.4 |  | 
2 | Cc1cc2cc(n1)-c1cnn(C)c1OCC[C@H]1C[C@@H]1CN1/C(=N/C2=O)Nc2ccc(N3CCN(C4CCN(c5ccc(C6CCC(=O)NC6=O)nc5C)CC4)C[C@@H]3C)cc21 (stereo partly drawn) [Example 3, 3-(5-(4-((S)-4-((7^1S,7^2R,E)-1^1,2^6-dimethyl-3-oxo-5^2,5^3-dihydro-1^1H,5^1H-10-oxa-4-aza-5 (2,1)-benzo[d]imidazola-2 (2,4)-pyridina-1 (4,5)-pyrazola-7 (1,2)-cyclopropanacyclodecaphane-5-yl)-3-methylpiperazin-1-yl)piperidin-1-yl)-6-methylpyridin-2-yl)piperidine-2,6-dione] | 11.6 | 85.5 | 3.1 | 65.2
3 | Cc1cc2cc(n1)-c1cnn(C)c1OCC[C@H]1C[C@@H]1CN1/C(=N/C2=O)Nc2ccc(N3CCC(N4CC5CCC(C4)N5c4ccc(C5CCC(=O)NC5=O)nc4C)CC3)cc21 (stereo partly shown) [Example 4, 3-(5-(3-(1-((7^1S,7^2R,E)-1^1,2^6-dimethyl-3-oxo-5^2,5^3-dihydro-1^1H,5^1H-10-oxa-4-aza-5 (2,1)-benzo[d]imidazola-2 (2,4)-pyridina-1 (4,5)-pyrazola-7 (1,2)-cyclopropanacyclodecaphane-5^6-yl)piperidin-4-yl)-3,8-diazabicyclo[3.2.1]octan-8-yl)-6-methylpyridin-2-yl)piperidine-2,6-dione] | 52.5 | 63.6 |  | 
4 | Cc1cc2cc(n1)-c1cnn(C)c1OCC[C@H]1C[C@@H]1CN1/C(=N/C2=O)Nc2ccc(N3CCC(N4CC5CCC4CN5c4ccc(C5CCC(=O)NC5=O)nc4C)CC3)cc21 (stereo partly shown) [Example 5, 3-(5-(5-(1-((7^1S,7^2R,E)-1^1,2^6-dimethyl-3-oxo-5^2,5^3-dihydro-1^1H,5^1H-10-oxa-4-aza-5 (2,1)-benzo[d]imidazola-2 (2,4)-pyridina-1 (4,5)-pyrazola-7 (1,2)-cyclopropanacyclodecaphane-5^6-yl)piperidin-4-yl)-2,5-diazabicyclo[2.2.2]octan-2-yl)-6-methylpyridin-2-yl)piperidine-2,6-dione] | 72.2 | 70.3 |  | 
5 | Cc1cc2cc(n1)-c1cnn(C)c1OCC[C@H]1C[C@@H]1CN1/C(=N/C2=O)Nc2ccc(N3CC4CCC3CN4C3CCN(c4ccc(C5CCC(=O)NC5=O)nc4C)CC3)cc21 (stereo partly shown) [Example 6, 3-(5-(4-(5-((7^1S,7^2R,E)-1^1,2^6-dimethyl-3-oxo-5^2,5^3-dihydro-1^1H,5^1H-10-oxa-4-aza-5 (2,1)-benzo[d]imidazola-2 (2,4)-pyridina-1 (4,5)-pyrazola-7 (1,2)-cyclopropanacyclodecaphane-5^6-yl)-2,5-diazabicyclo[2.2.2]octan-2-yl)piperidin-1-yl)-6-methylpyridin-2-yl)piperidine-2,6-dione] | 17.1 | 82.2 |  | 

Results, then the compound that gave them:

Row | DC50 [1] [nM] | Dmax [1] [%] | DC50 [2] [nM] | Dmax [2] [%] | Structure (SMILES)
6 | 85.4 | 74.9 |  |  | Cc1cc2cc(n1)-c1cnn(C)c1OCC[C@H]1C[C@@H]1CN1/C(=N/C2=O)Nc2ccc(N3CCN(C[C@@H]4CCN(c5ccc(C6CCC(=O)NC6=O)nc5C)C4)CC3)cc21 (stereo partly drawn) [Example 9, 3-(5-((S)-3-((4-((7^1S,7^2R,E)-1^1,2^6-dimethyl-3-oxo-5^2,5^3-dihydro-1^1H,5^1H-10-oxa-4-aza-5 (2,1)-benzo[d]imidazola-2 (2,4)-pyridina-1 (4,5)-pyrazola-7 (1,2)-cyclopropanacyclodecaphane-5^6-yl)piperazin-1-yl)methyl)pyrrolidin-1-yl)-6-methylpyridin-2-yl)piperidine-2,6-dione]
7 | 6.97 | 91.3 | > 10000 | 31.2 | Cc1cc2cc(n1)-c1cnn(C)c1OCC[C@H]1C[C@@H]1CN1/C(=N/C2=O)Nc2ccc(N3CCN(C4CN(C5CCN(c6cc(F)c([C@H]7CCC(=O)NC7=O)c(F)c6)CC5)C4)CC3)cc21 [Example 10, (R)-3-(4-(4-(3-(4-((7^1S,7^2R,E)-1^1,2^6-dimethyl-3-oxo-5^2,5^3-dihydro-1^1H,5^1H-10-oxa-4-aza-5 (2,1)-benzo[d]imidazola-2 (2,4)-pyridina-1 (4,5)-pyrazola-7 (1,2)-cyclopropanacyclodecaphane-5^6-yl)piperazin-1-yl)azetidin-1-yl)piperidin-1-yl)-2,6-difluorophenyl)piperidine-2,6-dione]
8 | 7.62 | 71.2 | 1.44 | 51.8 | Cc1cc2cc(n1)-c1cnn(C)c1OCC[C@H]1C[C@@H]1CN1/C(=N/C2=O)Nc2ccc(N3CCN([C@H]4CCN(c5cnc(C6CCC(=O)NC6=O)cc5C)C[C@H]4F)CC3)cc21 (stereo partly drawn) [Example 11, 3-(5-((3R,4S)-4-(4-((7^1S,7^2R,E)-1^1,2^6-dimethyl-3-oxo-5^2,5^3-dihydro-1^1H,5^1H-10-oxa-4-aza-5 (2,1)-benzo[d]imidazola-2 (2,4)-pyridina-1 (4,5)-pyrazola-7 (1,2)-cyclopropanacyclodecaphane-5^6-yl)piperazin-1-yl)-3-fluoropiperidin-1-yl)-4-methylpyridin-2-yl)piperidine-2,6-dione]
9 | 18.4 | 73.6 | 16 | 54.4 | Cc1cc2cc(n1)-c1cnn(C)c1OCC[C@H]1C[C@@H]1CN1/C(=N/C2=O)Nc2ccc(N3CCN([C@@H]4CCN(c5cnc(C6CCC(=O)NC6=O)cc5C)C[C@@H]4F)CC3)cc21 (stereo partly drawn) [Example 12, 3-(5-((3S,4R)-4-(4-((7^1S,7^2R,E)-1^1,2^6-dimethyl-3-oxo-5^2,5^3-dihydro-1^1H,5^1H-10-oxa-4-aza-5 (2,1)-benzo[d]imidazola-2 (2,4)-pyridina-1 (4,5)-pyrazola-7 (1,2)-cyclopropanacyclodecaphane-5^6-yl)piperazin-1-yl)-3-fluoropiperidin-1-yl)-4-methylpyridin-2-yl)piperidine-2,6-dione]
10 | 8.09 | 82.2 |  |  | Cc1cc2cc(n1)-c1cnn(C)c1OCC[C@H]1C[C@@H]1CN1/C(=N/C2=O)Nc2ccc(N3CCN(CC4CN(c5ccc6c(c5)C(C)(C)C(=O)N6C5CCC(=O)NC5=O)C4)CC3)cc21 (stereo partly shown) [Example 13, 3-(5-(3-((4-((7^1S,7^2R,E)-1^1,2^6-dimethyl-3-oxo-5^2,5^3-dihydro-1^1H,5^1H-10-oxa-4-aza-5 (2,1)-benzo[d]imidazola-2 (2,4)-pyridina-1 (4,5)-pyrazola-7 (1,2)-cyclopropanacyclodecaphane-5^6-yl)piperazin-1-yl)methyl)azetidin-1-yl)-3,3-dimethyl-2-oxoindolin-1-yl)piperidine-2,6-dione]

From US20260077051A1, “COMPOUNDS FOR THE DEGRADATION OF EGFR KINASE” (BeOne Medicines I GmbH, priority 2023, published 2026)
